The source of these data is patent US20090076140A1, “PHARMACEUTICAL COMPOSITIONS CONTAINING SULPHONIC ACID DERIVATIVES” (ITALFARMACO, S. A., priority 2003, published 2009).

A word on the IC50: it is the concentration needed to halve the response being measured.

For series [1], the target named is T1, aFGF (Homo sapiens, UniProt P05230). As to conditions: in vitro and in vivo; cited from earlier work.
Target sequence in this assay (P05230 whole entry, species assumed): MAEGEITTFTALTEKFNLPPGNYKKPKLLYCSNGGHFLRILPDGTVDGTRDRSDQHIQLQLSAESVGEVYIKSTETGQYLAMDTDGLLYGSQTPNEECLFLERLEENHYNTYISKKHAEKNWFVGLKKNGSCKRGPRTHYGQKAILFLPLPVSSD
The target in series [2] is T1, aFGF. As to conditions: literature (Pesenti et al.; Cuevas et al.); cited from earlier work.
Target sequence in this assay (P05230 whole entry, species assumed): as above
The target in series [3] is T1, aFGF. Details: the aFGF of 139 amino acid residues. The note with it: Lozano et al. (1998); cited from earlier work.
Target sequence in this assay (P05230 16-155 limits assumed): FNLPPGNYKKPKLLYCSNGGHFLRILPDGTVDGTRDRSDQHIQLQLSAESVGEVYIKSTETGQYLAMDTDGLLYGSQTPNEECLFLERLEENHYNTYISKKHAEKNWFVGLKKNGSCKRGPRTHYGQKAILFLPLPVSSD
Series [4] concerns quiescent fibroblasts (Balb/c 3T3). Put plainly: toxicity analysis for quiescent fibroblasts (culture in the absence of aFGF). The note with it: for toxicity for quiescent fibroblasts: within the concentration range tested / in which aFGF mitogenic activity is inhibited. Format: cell-based.
In the next series the test system is glioma C6 cells. Put plainly: angiogenesis and tumor growth inhibition, glioma C6 cells implanted in rabbit cornea. Format: in vivo, Albino New Zealand rabbits. The protocol: Albino New Zealand rabbits (3±0.5 kg, male and female in equal numbers) were used and were implanted with 5 μL of a glioma C6 cell suspension [ATCC CCL-107] subepithelially injected into the cornea with a 10 μL Hamilton syringe using a surgical microscope. The injection is located at 2 mm from the limbal margin of the cornea. At the same time, an osmotic minipump was subcutaneously implanted in the neck region for the purpose of assuring continuous infusion of the compound to be tested (C-9) or of a saline solution (control). A catheter guided the solution to the sclera at a constant rate of 0.2 mg/h. It is thus calculated that a concentration of about 0.003 mg/mL of the compound to be tested or saline solution is maintained in the cornea. Treatment was maintained for 14 days. The corneas were eliminated at the end of each experiment and at fixed intervals after each treatment and processed for histological examination.

A short description of series [5]: toxicity observations in the mouse angiogenesis test. As to conditions: highest tested concentrations. Format: in vivo. The procedure: (§1) Pathogen-free C57/BI/6 mice (Charles River, Spain) weighing 25±4 g were used. The animals were kept in plastic cages under controlled temperature and humidity conditions; they had water and food ad libitum and a schedule of 12 hours of daylight and darkness was maintained. The guidelines on animal welfare of the NIH and the European Union were followed meticulously.
10 mm long sterile gelatin sponge cubes (Curaspon Dental, Clinimed Holding, Zwanenburg, Holland) were subcutaneously implanted in the backs of the mice after inducing intraperitoneal anesthesia [Cuevas, P. et al. (1999) Neurol. Res. 21, 191-194]. The animals were distributed into 2 groups: Group A (n=10): formed by animals in which sponges loaded with 200 μL of phosphate buffered saline (PBS) containing 29 μg/mL of heparin were implanted; and Group B (n=40): formed by animals in which sponges soaked with the same solution as that of Group A but containing 10 μg/mL of aFGF were implanted. The skin was sutured after implanting the sponge in the subcutaneous bursa. The mice in Group B were randomly divided into four groups (n=10) that received 0.008, 0.08, 0.8 and 8 mg/kg of compound C-9, respectively, by means of intraperitoneal injection of 200 μL of PBS 24 hours after surgical treatment [Pesenti, E. et al. (1992) Brit. J. Cancer 66, 367-372; Cuevas, P. et al. (1999) Neurol. Res. 21, 191-194]. […]

For a further series, the target named is bFGF (Homo sapiens, UniProt P09038). Put plainly: angiogenesis inhibition test in mice with aFGF substituted with bFGF. Format: in vivo. The note with it: data not shown.
The target of series [6] is T1, aFGF. Put plainly: aFGF-induced mitogenesis inhibition test on fibroblasts in culture. More on the design: the aFGF of 139 amino acid residues. Format: cell-based.
Target sequence in this assay (P05230 16-155 limits assumed): as above
In series [7] the target is T1, aFGF. Put plainly: angiogenesis inhibition test in mice (aFGF-soaked gelatin sponge implants). The format is in vivo. The protocol: A standard angiogenesis test was performed with mice in order to evaluate the C-9 compound as an angiogenesis inhibitor.
as §1
Target sequence in this assay (P05230 whole entry, species assumed): as the sequence (P05230 whole entry, species assumed) above
10 mm long sterile gelatin sponge cubes (Curaspon Dental, Clinimed Holding, Zwanenburg, Holland) were subcutaneously implanted in the backs of the mice after inducing intraperitoneal anesthesia [Cuevas, P. et al. (1999) Neurol. Res. 21, 191-194]. The animals were distributed into 2 groups: Group A (n=10): formed by animals in which sponges loaded with 200 μL of phosphate buffered saline (PBS) containing 29 μg/mL of heparin were implanted; and Group B (n=40): formed by animals in which sponges soaked with the same solution as that of Group A but containing 10 μg/mL of aFGF were implanted. The skin was sutured after implanting the sponge in the subcutaneous bursa. The mice in Group B were randomly divided into four groups (n=10) that received 0.008, 0.08, 0.8 and 8 mg/kg of compound C-9, respectively, by means of intraperitoneal injection of 200 μL of PBS 24 hours after surgical treatment [Pesenti, E. et al. (1992) Brit. J. Cancer 66, 367-372; Cuevas, P. et al. (1999) Neurol. Res. 21, 191-194]. All the procedures were performed under sterile conditions.
In order to evaluate angiogenesis, the mice were again anesthetized as previously described, and the sponges were surgically extracted, which were treated to perform histological studies by means of conventional methods [Cuevas, P. et al. (1999) Neurol. Res. 21, 191-194] 7 days after the implants. Neovascularization was quantified by means of a morphometric computer program connected to a microscope. The growth of new vessels inside the sponges was evaluated by means of the measurement of the surface area containing erythrocytes. Neovascularization was analyzed in 4 predetermined visual fields of 3 different sections at a magnification of 10. The statistical analyses were performed using Student's t-Test.

For a further series, the system named is C6 glioma cells. Put plainly: angiogenesis and tumor growth inhibition, C6 glioma cells implanted in rat brain. The format is in vivo, rats. The protocol: A test similar to the one described in Example 3.1 was performed with rats, implanting the C6 glioma cells in the caudal area of the brain and the osmotic micropump in the back of the rats. A catheter led the treatment solution that contained the C-9 compound or the saline solution to the area of the glioma implant. Coronal sections of the brain of the rats thus treated were obtained and compared with coronal sections of the brain of untreated rats. The analysis was done by means of NMR spectroscopy imaging.

bFGF, sequence (P09038 143-288, species assumed): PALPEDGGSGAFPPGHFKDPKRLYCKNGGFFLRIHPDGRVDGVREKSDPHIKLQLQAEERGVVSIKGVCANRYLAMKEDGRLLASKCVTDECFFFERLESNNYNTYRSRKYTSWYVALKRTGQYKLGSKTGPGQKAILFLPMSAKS

Consider `O=S(=O)(O)c1ccc2c(S(=O)(=O)O)cc(S(=O)(=O)O)cc2c1` [1,3,6-NTS, 1,3,6-naphthalenetrisulfonic acid], for which the “aFGF-induced angiogenesis and glioma proliferation inhibition (literature)” value at aFGF [1] is “positive results”. On aFGF [2], the “concentration required to reach substantial neovascularization inhibition” value is listed as “about 200 mg/kg”. Moreover, the “aFGF-induced mitogenic activity inhibition (literature)” value on aFGF [3] is listed as “aFGF-induced mitogenic activity inhibitors”.

As to `Nc1cccc2cc(S(=O)(=O)[O-])ccc12.[Na+]` [Compound C-9, sodium 5-amino-2-naphthalenesulfonate], the “mitogenesis inductor / tumorigenic effect on quiescent fibroblasts in the absence of aFGF” value in series [4] (absence of aFGF) is given as “does not occur”. Further, the “toxicity for quiescent fibroblasts” value in [4] is recorded as “innocuous”. Moreover, the “toxicity for quiescent fibroblasts” value in [4] (listed as sodium 5-amino-2-naphthalenesulfonate) was “not toxic”. Also, in the series with glioma C6 cells (continuous infusion 0.2 mg/h, 14 days), the apoptosis index entry is on record as “very positive”. Also, in the series on glioma C6 cells (in comparison with the untreated animals), the corneal neovascularization area result was “very reduced”. In the series with glioma C6 cells (treated animals), the “apoptotic endothelial nuclei (microscopic observation)” value is “presence of apoptotic endothelial nuclei”, the “broken blood vessels (microscopic observation)” value is on record as “presence of broken blood vessels”, the “number of apoptotic bodies (microscopic observation)” value is on record as “higher number” and the “number of glioma C6 cells (microscopic observation)” value is given as “lower number”. Besides, in series [5], the “toxic death or apparent alterations in the animals” value is listed as “did not cause any toxic death or apparent alterations” and the weight changes result was “nor did it cause weight changes”. Further, on bFGF, the “neovascularization inhibition with bFGF instead of aFGF” value is given as “Equivalent results”. On aFGF [6] (Balb/c 3T3 fibroblasts, 60 hours, MIHS 20 μg/mL, aFGF 0.32 ng/mL), the “aFGF-induced mitogenic activity inhibition (in words)” value was “potent aFGF-induced mitogenic activity inhibitors”. In addition, the “aFGF-induced mitogenic inhibitory activity compared between compounds (stereochemical guidelines)” value at aFGF [6] (C-9 and C-17 vs. C-14 and C-18, C-10, C-11, C-13 vs. C-9, 2-NMS vs 1-NMS series) is “better aFGF-induced mitogenic activity inhibitors”. On aFGF [6] (aFGF-induced mitogenesis), the “IC50 rank among the tested compounds” value is “second best IC50 value”. For the same compound, on aFGF [6] (aFGF-induced mitogenesis, Balb/c 3T3 fibroblasts, read-out: inhibitory activity IC50), the IC50 is 265 µM. Also, at aFGF [7] (0.008 mg/kg intraperitoneal, 7 days after implants), the neovascularization inhibition result is given as “already assessable”. At aFGF [7] (0.08 mg/kg intraperitoneal, 7 days after implants), the neovascularization inhibition entry is on record as “already assessable”. Also, the “cellular infiltration in aFGF-soaked sponge implants” value at aFGF [7] (8 mg/kg intraperitoneal, FIG. 2) is recorded as “disappears”. Further, at aFGF [7] (doses exceeding 0.8 mg/kg intraperitoneal), the neovascularization inhibition entry is “virtually complete”. Further, at aFGF [7] (mouse, in vivo), the “aFGF-induced angiogenic activity inhibition (in words)” value is given as “aFGF-induced angiogenic activity inhibitors”; the “neovascularization inhibition compared with suramines and 1,3,6-NTS” value was “considerably more effective neovascularization inhibitor”. Further, the tumor mass result with C6 glioma cells (NMR imaging of coronal brain sections vs untreated rats) is recorded as “significantly decreased”. Moreover, the “intratumor vascularization inhibition (factor)” value in the series with C6 glioma cells (rat, in vivo) was “six”.
